How the values were obtained:
[1] = test system: Hepatitis C virus; test: Antiviral activity against Hepatitis C virus genotype 1b infected in human Huh5-2 cells assessed as luciferase activity after 4 days by Steady-Glo luciferase assay; format: functional, organism-based, Hepacivirus hominis; conditions: Huh-5-2, 96 h
[2] = Cytostatic activity against human Huh5-2 cells after 3 days by MTS method; format: cell-based, Huh-5-2
[3] = Selectivity index, ratio of CC50 for human Huh5-2 cells to EC50 for Hepatitis C virus genotype 1b infected in human Huh5-2 cells; format: toxicity, cell-based, Huh-5-2; conditions: read-out: Ratio CC50/EC50

Q: With `O=c1oc2ccccc2cc1-c1nc2cc(F)ccc2[nH]1` as the molecule, how does the EC50 [1] read?
A: 84 µM

Q: What about the CC50 at 72 h [2] of the same molecule?
A: 13 µM

Q: What about the selectivity ratio [3] of the same molecule?
A: 0.15

Q: Which results are given for `Cc1c(-c2nc3ccccc3n2[C@@H]2O[C@H](CO)[C@@H](O)[C@H]2O)c(=O)oc2ccccc12`?
A: EC50 [1]: 110 µM; CC50 at 72 h [2]: 122 µM; selectivity ratio [3]: 1.1

Q: Which EC50 [1] does the source give for `O=C(O)c1ccc2[nH]c(-c3cc4ccccc4oc3=O)nc2c1` here?
A: 40 µM

Q: And the CC50 at 72 h [2]?
A: 13 µM

Q: What about the selectivity ratio [3] of the same molecule?
A: 0.32

Q: Which EC50 [1] does the source give for `Cc1cc2nc(-c3cc4ccccc4oc3=O)[nH]c2cc1C` here?
A: 3 µM

Q: And the CC50 at 72 h [2]?
A: 23 µM

Q: What about the selectivity ratio [3] of the same molecule?
A: 7.9

Q: What does the source list for `Cc1c(-c2nc3ccccc3[nH]2)c(=O)oc2ccccc12`?
A: EC50 [1]: 40 µM; CC50 at 72 h [2]: 27 µM; selectivity ratio [3]: 0.66

Q: For `O=C(O)c1ccc2[nH]c(-c3cc4ccc(I)cc4oc3=O)nc2c1`, which EC50 [1] is on record?
A: 118 µM

Q: What about the CC50 at 72 h [2] of the same molecule?
A: 118 µM

Q: And the selectivity ratio [3]?
A: 1

Q: Which EC50 [1] does the source give for `O=c1oc2ccccc2cc1-c1nc2cc3ccccc3cc2[nH]1` here?
A: 105 µM

Q: And the CC50 at 72 h [2]?
A: 135 µM

Q: What about the selectivity ratio [3] of the same molecule?
A: 1.3

Q: With `Cc1c(-c2nc3cc(F)ccc3[nH]2)c(=O)oc2ccccc12` as the molecule, how does the EC50 [1] read?
A: 79 µM

Q: And the CC50 at 72 h [2]?
A: 170 µM

Q: What about the selectivity ratio [3] of the same molecule?
A: 2.2

Q: For `Cc1cc2nc(-c3c(C)c4ccccc4oc3=O)[nH]c2cc1C`, which EC50 [1] is on record?
A: 40 µM

Q: And the CC50 at 72 h [2]?
A: 77 µM

Q: And the selectivity ratio [3]?
A: 2

Q: With `COc1cccc2cc(-c3nc4cccnc4[nH]3)c(=O)oc12` as the molecule, how does the EC50 [1] read?
A: 84 µM

Q: And the CC50 at 72 h [2]?
A: 170 µM

Q: What about the selectivity ratio [3] of the same molecule?
A: 2

Q: Which EC50 [1] does the source give for `CC(=O)OC[C@H]1O[C@@H](n2c(-c3cc4ccccc4oc3=O)nc3ccccc32)[C@H](OC(C)=O)[C@@H]1OC(C)=O` here?
A: 60 µM

Q: And the CC50 at 72 h [2]?
A: 98 µM

Q: And the selectivity ratio [3]?
A: 1.6

Q: For `Cc1ccc2[nH]c(-c3cc4ccccc4oc3=O)nc2c1`, which EC50 [1] is on record?
A: 2.3 µM

Q: What about the CC50 at 72 h [2] of the same molecule?
A: 2.3 µM

Q: What about the selectivity ratio [3] of the same molecule?
A: 1

Q: Which EC50 [1] does the source give for `CC(=O)OC[C@H]1O[C@@H](n2c(-c3c(C)c4ccccc4oc3=O)nc3ccccc32)[C@H](OC(C)=O)[C@@H]1OC(C)=O` here?
A: 941 µM

Q: And the CC50 at 72 h [2]?
A: 941 µM

Q: And the selectivity ratio [3]?
A: 1

Q: For `COc1cccc2cc(-c3nc4ccc(C)cc4[nH]3)c(=O)oc12`, which EC50 [1] is on record?
A: 12 µM

Q: What about the CC50 at 72 h [2] of the same molecule?
A: 12 µM

Q: And the selectivity ratio [3]?
A: 1

Q: Which EC50 [1] does the source give for `O=C(O)c1ccc2[nH]c(-c3cc4cc([N+](=O)[O-])ccc4oc3=O)nc2c1` here?
A: 6.9 µM

Q: What about the CC50 at 72 h [2] of the same molecule?
A: 10 µM

Q: And the selectivity ratio [3]?
A: 1.5

Q: Which results are given for `O=c1oc2ccccc2cc1-c1nc2ccccc2n1[C@@H]1O[C@H](CO)[C@@H](O)[C@H]1O`?
A: EC50 [1]: 20 µM; CC50 at 72 h [2]: 127 µM; selectivity ratio [3]: 6.4

Q: For `CC(=O)Oc1ccc2c(C)c(-c3nc4ccccc4[nH]3)c(=O)oc2c1`, which EC50 [1] is on record?
A: 153 µM

Q: What about the CC50 at 72 h [2] of the same molecule?
A: 153 µM

Q: What about the selectivity ratio [3] of the same molecule?
A: 1

Q: With `Cc1cc2nc(-c3cc4cc(Br)ccc4oc3=O)[nH]c2cc1C` as the molecule, how does the EC50 [1] read?
A: 40 µM

Q: What about the CC50 at 72 h [2] of the same molecule?
A: 172 µM

Q: What about the selectivity ratio [3] of the same molecule?
A: 4.3

Q: Which results are given for `Cc1ccc2[nH]c(-c3cc4c(ccc5ccccc54)oc3=O)nc2c1`?
A: EC50 [1]: 5.5 µM; CC50 at 72 h [2]: 77 µM; selectivity ratio [3]: 14

Q: With `Cc1ccc2[nH]c(-c3c(C)c4ccccc4oc3=O)nc2c1` as the molecule, how does the EC50 [1] read?
A: 28 µM

Q: And the CC50 at 72 h [2]?
A: 29 µM

Q: And the selectivity ratio [3]?
A: 1
